# Where “and” joins values, the source holds several entries; their conditions need not be identical. Equal entries are not always repeated. Inconclusive results and toxic doses are left out.
# Test system: CD2F1 mice, L1210 leukemia ip, survival T/C
# Experiment: NCI In Vivo Anticancer Drug Screen. Data for tumor model L1210 Leukemia (intraperitoneal) in CD2F1 (CDF1) mice
# Conditions: higher = longer survival
# Procedure, shortened: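 In this screen, transplantable tumors were grown in mice given either the compound or its vehicle. Results were expressed as the treated measurement relative to the control measurement.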
# [1] = endpoint: mean survival time, dose: 100.0 mg/kg/injection, schedule: Q04DX003 (ip), vehicle: saline with Tween-80
# [2] = endpoint: mean survival time, dose: 200.0 mg/kg/injection, schedule: Q04DX003 (ip), vehicle: saline with Tween-80
# [3] = endpoint: mean survival time, dose: 400.0 mg/kg/injection, schedule: Q04DX003 (ip), vehicle: saline with Tween-80
# [4] = endpoint: mean survival time, dose: 400.0 mg/kg/injection, schedule: Q01DX009 (ip), vehicle: other
# [5] = endpoint: mean survival time, dose: 50.0 mg/kg/injection, schedule: Q01DX009 (ip), vehicle: Klucel (hydroxypropylcellulose) (HPC)
# [6] = endpoint: mean survival time, dose: 100.0 mg/kg/injection, schedule: Q01DX009 (ip), vehicle: Klucel (hydroxypropylcellulose) (HPC)
# [7] = endpoint: mean survival time, dose: 200.0 mg/kg/injection, schedule: Q01DX009 (ip), vehicle: saline with Tween-80
# [8] = endpoint: mean survival time, dose: 100.0 mg/kg/injection, schedule: Q01DX009 (ip), vehicle: saline with Tween-80
# [9] = endpoint: mean survival time, dose: 25.0 mg/kg/injection, schedule: Q01DX009 (ip), vehicle: saline with Tween-80
# [10] = endpoint: mean survival time, dose: 50.0 mg/kg/injection, schedule: Q01DX009 (ip), vehicle: saline with Tween-80
compound,measurement,setting,value
CCC1(O)C(=O)OCc2c1cc1n(c2=O)Cc2cc3cc(N)ccc3nc2-1 (stereo unspecified),T/C,"endpoint: median survival time, dose: 1.35 mg/kg/injection, schedule: Q01DX005 (ip), vehicle: saline",243 % of control
same,T/C,"endpoint: median survival time, dose: 1.87 mg/kg/injection, schedule: Q01DX005 (ip), vehicle: saline",188 % of control
same,T/C,"endpoint: median survival time, dose: 2.0 mg/kg/injection, schedule: Q04DX002 (ip), vehicle: saline",158 % of control
same,T/C,"endpoint: median survival time, dose: 2.25 mg/kg/injection, schedule: Q01DX005 (ip), vehicle: saline",243 % of control
same,T/C,"endpoint: median survival time, dose: 3.75 mg/kg/injection, schedule: Q01DX005 (ip), vehicle: saline",271 % of control and 365 % of control
same,T/C,"endpoint: median survival time, dose: 4.0 mg/kg/injection, schedule: Q04DX002 (ip), vehicle: saline",157 % of control and 170 % of control
same,T/C,"endpoint: median survival time, dose: 6.25 mg/kg/injection, schedule: Q01DX005 (ip), vehicle: saline",90 % of control
same,T/C,"endpoint: median survival time, dose: 7.5 mg/kg/injection, schedule: Q01DX005 (ip), vehicle: saline",123 % of control
same,T/C,"endpoint: median survival time, dose: 8.0 mg/kg/injection, schedule: Q04DX002 (ip), vehicle: saline",256 % of control and 329 % of control
same,T/C,"endpoint: median survival time, dose: 15.0 mg/kg/injection, schedule: Q01DX005 (ip), vehicle: saline",100 % of control
same,T/C,"endpoint: median survival time, dose: 16.0 mg/kg/injection, schedule: Q04DX002 (ip), vehicle: saline",243 % of control and 329 % of control
same,T/C,"endpoint: median survival time, dose: 30.0 mg/kg/injection, schedule: Q01DX005 (ip), vehicle: saline",88 % of control
same,T/C,"endpoint: median survival time, dose: 32.0 mg/kg/injection, schedule: Q04DX002 (ip), vehicle: saline",268 % of control
CN(C)CCCNC1CCC(NCCCN(C)C)CC1 (stereo unspecified),T/C,"endpoint: mean survival time, dose: 25.0 mg/kg/injection, schedule: Q01DX009 (ip), vehicle: saline",96 % of control
same,T/C,"endpoint: mean survival time, dose: 100.0 mg/kg/injection, schedule: Q04DX003 (ip), vehicle: saline",98 % of control
CCOCCNCc1ccc(Cl)c(Cl)c1,T/C,[1],93 % of control
same,T/C,[2],94 % of control
Cc1cc(Br)ccc1N,T/C,[1],97 % of control
same,T/C,[2],96 % of control
same,T/C,[3],97 % of control
CCOc1ccc(C(/C(Cl)=N/O)C(Cl)(Cl)Cl)cc1 (stereo unspecified),T/C,"endpoint: mean survival time, dose: 12.5 mg/kg/injection, schedule: Q01DX009 (ip), vehicle: acetone",94 % of control
same,T/C,"endpoint: mean survival time, dose: 25.0 mg/kg/injection, schedule: Q01DX009 (ip), vehicle: acetone",103 % of control
same,T/C,"endpoint: mean survival time, dose: 50.0 mg/kg/injection, schedule: Q01DX009 (ip), vehicle: acetone",108 % of control
COC(=O)C(=C(C)C)[N+](=O)[O-],T/C,[1],91 % of control
same,T/C,[2],95 % of control
same,T/C,[3],95 % of control
CCN(C)c1cc2c3c(c1)CCCN3CCC2,T/C,"endpoint: mean survival time, dose: 1.25 mg/kg/injection, schedule: Q01DX009 (ip), vehicle: saline",103 % of control
same,T/C,"endpoint: mean survival time, dose: 2.5 mg/kg/injection, schedule: Q01DX009 (ip), vehicle: saline",104 % of control
same,T/C,"endpoint: mean survival time, dose: 5.0 mg/kg/injection, schedule: Q01DX001 (ip), vehicle: saline",100 % of control
same,T/C,"endpoint: mean survival time, dose: 5.0 mg/kg/injection, schedule: Q01DX009 (ip), vehicle: saline",98 % of control
same,T/C,"endpoint: mean survival time, dose: 10.0 mg/kg/injection, schedule: Q01DX001 (ip), vehicle: saline",101 % of control
same,T/C,"endpoint: mean survival time, dose: 20.0 mg/kg/injection, schedule: Q01DX001 (ip), vehicle: saline",102 % of control
NC(CSC(c1ccccc1)(c1ccccc1)c1ccc(CBr)cc1)C(=O)O (stereo unspecified),T/C,"endpoint: mean survival time, dose: 12.5 mg/kg/injection, schedule: Q01DX009 (ip), vehicle: other",107 % of control
same,T/C,"endpoint: mean survival time, dose: 25.0 mg/kg/injection, schedule: Q01DX009 (ip), vehicle: other",107 % of control
same,T/C,"endpoint: mean survival time, dose: 50.0 mg/kg/injection, schedule: Q01DX009 (ip), vehicle: other",109 % of control
same,T/C,"endpoint: mean survival time, dose: 100.0 mg/kg/injection, schedule: Q01DX009 (ip), vehicle: other",115 % of control
same,T/C,[4],164 % of control
CCCC(=O)OCc1cc(=O)n(C)c2c3c4c(cc12)c(C)cc(=O)n4CO3,T/C,"endpoint: mean survival time, dose: 1.56 mg/kg/injection, schedule: Q01DX009 (ip), vehicle: Klucel (hydroxypropylcellulose) (HPC)",97 % of control
same,T/C,"endpoint: mean survival time, dose: 3.12 mg/kg/injection, schedule: Q01DX009 (ip), vehicle: Klucel (hydroxypropylcellulose) (HPC)",106 % of control and 112 % of control
same,T/C,"endpoint: mean survival time, dose: 6.25 mg/kg/injection, schedule: Q01DX009 (ip), vehicle: Klucel (hydroxypropylcellulose) (HPC)",116 % of control and 105 % of control and 109 % of control
same,T/C,"endpoint: mean survival time, dose: 12.5 mg/kg/injection, schedule: Q01DX009 (ip), vehicle: Klucel (hydroxypropylcellulose) (HPC)",113 % of control and 107 % of control and 110 % of control
same,T/C,"endpoint: mean survival time, dose: 25.0 mg/kg/injection, schedule: Q01DX009 (ip), vehicle: Klucel (hydroxypropylcellulose) (HPC)",117 % of control and 119 % of control and 124 % of control
same,T/C,[5],118 % of control and 124 % of control
same,T/C,[6],96 % of control
CCOC(=O)Nc1cc(NC(C)CCCN(CC)CC)c2ncc(-c3cc(OC)c(OC)c(OC)c3)nc2n1 (stereo unspecified) (tested in a mixture with another compound),T/C,"endpoint: mean survival time, dose: 50.0 mg/kg/injection, schedule: Q01DX009 (ip), vehicle: saline",89 % of control
same,T/C,"endpoint: mean survival time, dose: 100.0 mg/kg/injection, schedule: Q01DX009 (ip), vehicle: saline",89 % of control
same,T/C,"endpoint: mean survival time, dose: 200.0 mg/kg/injection, schedule: Q01DX009 (ip), vehicle: saline",89 % of control
CN(C)c1ccc(OC(=O)c2cc3ccccc3cc2O)cc1,T/C,[5],112 % of control
same,T/C,[6],108 % of control
same,T/C,"endpoint: mean survival time, dose: 200.0 mg/kg/injection, schedule: Q01DX009 (ip), vehicle: Klucel (hydroxypropylcellulose) (HPC)",101 % of control
CCOC(=O)C(C(=O)OCC)n1c(=O)c2c(ncn2C)n(C)c1=O,T/C,"endpoint: mean survival time, dose: 200.0 mg/kg/injection, schedule: Q01DX005 (ip), vehicle: distilled water + Tween-80",102 % of control
same,T/C,"endpoint: mean survival time, dose: 400.0 mg/kg/injection, schedule: Q01DX005 (ip), vehicle: distilled water + Tween-80",101 % of control
O=C(O)C(=O)O.[La],T/C,"endpoint: mean survival time, dose: 200.0 mg/kg/injection, schedule: Q01DX009 (ip), vehicle: other",98 % of control
same,T/C,[4],96 % of control
CN(C)C(=O)Nc1ccc(Br)cc1,T/C,"endpoint: mean survival time, dose: 100.0 mg/kg/injection, schedule: Q04DX002 (ip), vehicle: saline with Tween-80",86 % of control
same,T/C,"endpoint: mean survival time, dose: 200.0 mg/kg/injection, schedule: Q04DX002 (ip), vehicle: saline with Tween-80",93 % of control
same,T/C,"endpoint: mean survival time, dose: 400.0 mg/kg/injection, schedule: Q04DX002 (ip), vehicle: saline with Tween-80",93 % of control
O=C(O)O,T/C,"endpoint: mean survival time, dose: 200.0 mg/kg/injection, schedule: Q01DX001 (ip), vehicle: saline",105 % of control
same,T/C,[7],107 % of control
same,T/C,"endpoint: mean survival time, dose: 400.0 mg/kg/injection, schedule: Q01DX001 (ip), vehicle: saline",100 % of control
[Cl][Pt+2][Cl].[NH-]CCN(CCN)CCN,T/C,"endpoint: mean survival time, dose: 12.5 mg/kg/injection, schedule: Q04DX003 (ip), vehicle: saline with Tween-80",97 % of control
same,T/C,"endpoint: mean survival time, dose: 25.0 mg/kg/injection, schedule: Q04DX003 (ip), vehicle: saline with Tween-80",98 % of control
CCN(CC)CCN(C)N=Nc1ccccc1C(=O)NN,T/C,"endpoint: mean survival time, dose: 72.0 mg/kg/injection, schedule: Q01DX001 (ip), vehicle: saline",105 % of control
same,T/C,"endpoint: mean survival time, dose: 145.0 mg/kg/injection, schedule: Q01DX001 (ip), vehicle: saline",100 % of control
CC(C)(COCc1ccccc1)COP(N)(=O)N(CCCl)CCCl (stereo unspecified),T/C,"endpoint: mean survival time, dose: 25.0 mg/kg/injection, schedule: Q01DX001 (ip), vehicle: other",102 % of control
same,T/C,"endpoint: mean survival time, dose: 50.0 mg/kg/injection, schedule: Q01DX001 (ip), vehicle: other",93 % of control
same,T/C,"endpoint: mean survival time, dose: 100.0 mg/kg/injection, schedule: Q01DX001 (ip), vehicle: other",87 % of control
same,T/C,"endpoint: mean survival time, dose: 200.0 mg/kg/injection, schedule: Q01DX001 (ip), vehicle: other",96 % of control
same,T/C,"endpoint: mean survival time, dose: 400.0 mg/kg/injection, schedule: Q01DX001 (ip), vehicle: other",98 % of control
COC(=O)c1ccc(I)c([N+](=O)[O-])c1,T/C,"endpoint: mean survival time, dose: 100.0 mg/kg/injection, schedule: Q01DX001 (ip), vehicle: saline with Tween-80",98 % of control
same,T/C,[8],102 % of control
same,T/C,"endpoint: mean survival time, dose: 200.0 mg/kg/injection, schedule: Q01DX001 (ip), vehicle: saline with Tween-80",104 % of control
same,T/C,[7],102 % of control
same,T/C,"endpoint: mean survival time, dose: 400.0 mg/kg/injection, schedule: Q01DX001 (ip), vehicle: saline with Tween-80",97 % of control
same,T/C,"endpoint: mean survival time, dose: 400.0 mg/kg/injection, schedule: Q01DX009 (ip), vehicle: saline with Tween-80",103 % of control
O=S(=O)(Oc1ccccc1)c1c(F)c(F)c(F)c(F)c1F,T/C,[9],94 % of control
same,T/C,[10],94 % of control
same,T/C,[8],90 % of control
same,T/C,[1],95 % of control
CC(=O)Nc1ccc(OCCOC(=O)Nc2ccc(Cl)cc2C)cc1,T/C,"endpoint: mean survival time, dose: 12.5 mg/kg/injection, schedule: Q01DX009 (ip), vehicle: saline with Tween-80",98 % of control
same,T/C,[9],95 % of control
same,T/C,[10],95 % of control and 96 % of control
same,T/C,[7],92 % of control
Cc1cc(C)[nH]n1,T/C,[1],95 % of control
same,T/C,[2],93 % of control
same,T/C,[3],97 % of control

# Reference: PubChem BioAssay AID256 (DTP/NCI, 2004)
